Reference: article PMC6727617, “Exploiting Designed Oxidase–Peroxygenase Mutual Benefit System for Asymmetric Cascade Reactions” (Journal of the American Chemical Society, 2019)

Assays:
OleTJE = target: T1, OleTJE (Jeotgalicoccus sp. ATCC 8456, UniProt E9NSU2); assay: GC of styrene / styrene oxide formation in coupled reaction with purified P450-BM3 SO5; assay type: biochemical; conditions: no external H2O2, H2O2 from SO5 uncoupling
T1 construct: gene JEM45_03820; recombinant; purified enzyme or lyophilized cell-free lysate powder
T1 sequence (E9NSU2 1-422): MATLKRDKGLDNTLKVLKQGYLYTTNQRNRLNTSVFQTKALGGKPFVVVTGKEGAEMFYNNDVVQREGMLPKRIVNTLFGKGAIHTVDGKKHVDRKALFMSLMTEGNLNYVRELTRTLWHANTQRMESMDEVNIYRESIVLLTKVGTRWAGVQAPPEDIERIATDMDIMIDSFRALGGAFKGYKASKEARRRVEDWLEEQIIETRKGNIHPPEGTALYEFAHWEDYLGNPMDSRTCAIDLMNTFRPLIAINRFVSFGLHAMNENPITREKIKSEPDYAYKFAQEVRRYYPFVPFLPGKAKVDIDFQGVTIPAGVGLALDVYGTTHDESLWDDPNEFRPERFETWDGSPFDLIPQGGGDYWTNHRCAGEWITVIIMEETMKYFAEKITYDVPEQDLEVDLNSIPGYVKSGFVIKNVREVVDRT

ANEH = target: T2, ANEH (Aspergillus niger, UniProt Q9UR30); assay: one-pot cascade with lyophilized lysate powders, conversion to diol; assay type: biochemical; conditions: 50 mM PBS pH 8.0, 300 mM NaCl; epoxide formed in situ by P450-BM3 SO5
T2 construct: gene hyl1; recombinant, co-expressed with P450-BM3 SO5 under the same T7 promoter; lyophilized cell-free lysate powder
T2 sequence (Q9UR30 1-398): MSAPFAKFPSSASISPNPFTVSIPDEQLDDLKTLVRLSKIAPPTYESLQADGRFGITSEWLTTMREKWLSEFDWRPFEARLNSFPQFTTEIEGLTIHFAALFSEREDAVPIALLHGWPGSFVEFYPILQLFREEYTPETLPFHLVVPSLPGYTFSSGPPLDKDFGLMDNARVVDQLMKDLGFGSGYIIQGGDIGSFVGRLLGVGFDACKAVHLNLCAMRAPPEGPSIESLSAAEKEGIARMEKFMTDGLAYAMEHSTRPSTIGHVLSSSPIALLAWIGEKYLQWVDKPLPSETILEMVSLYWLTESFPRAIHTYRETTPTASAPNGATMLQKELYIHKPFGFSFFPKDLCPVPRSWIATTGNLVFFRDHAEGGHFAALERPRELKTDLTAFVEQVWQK

O=C(O)CCc1ccccc1 [1a, 3-phenyl propionic acid]
GC of styrene / styrene oxide formation in coupled reaction with purified P450-B (OleTJE): purified OleTJE was mixed with the purified SO5 variant, and tested in the model reaction

C=Cc1ccccc1 [styrene]
GC of styrene / styrene oxide formation in coupled reaction with purified P450-B (OleTJE): OleT-Catalyzed Reaction B Supplies the Necessary Styrene from 3-Phenyl Propionic Acid

c1ccc([C@@H]2CO2)cc1 [(R)-styrene oxide]
one-pot cascade with lyophilized lysate powders, conversion to diol (ANEH): selective hydrolytic ring-opening of the respective epoxide catalyzed by the epoxide hydrolase
